Assay results from patent US6627649B1, “Pharmaceutical compositions containing in combination two antagonists selective of arginine-vassopressin V receptors, even of V1 a and V2 receptors” (Sanofi-Synthelabo, priority 1998, dated 2003).

Legend:
human V1a receptors = human V1a receptors (Homo sapiens, UniProt P37288); conditions: various species, in particular human V1a receptors; J. Clin. Invest., 1993, 92 224-231; cited from earlier work
[1] = system: normally hydrated conscious rat; assay: water diuresis induced in the normally hydrated conscious rat (urinary volume, osmolality, Na+ and K+ excretion over 24 h); type: in vivo, Sprague Dawley male rats; conditions: for effect on urinary excretion (in words) / effect on urinary excretion of Na+ and K+ ions (in words) / effect on urinary osmolality (in words): oral, over 24 hours
Method: Serradeil-Le Gal et al., J. Clin. Invest. 1996, 98, 2729-2738.
The various assays are performed on Sprague Dawley male rats (280+/−20 g) obtained from Iffa Credo (France).
Twenty four hours before the start of the study, the rats were randomized and placed in metabolic cages with food and water ad libitum. They received orally 3 ml/kg of a 0.6% aqueous solution of methylcellulose. The urines were collected over a 24 hour period, i.e. day D-1.
The next morning the rats are treated orally (solvent or products alone or in combination) and returned individually to their metabolic cage for a period of 24 hours with food and water ad libitum. The urines are collected over a period of 24 hours after treatment, i.e. day D-0.
Urinary osmolality and the urinary excretion of Na^+ and K^+ ions are also measured during the 24 hour period before and after treatment. The urinary osmolality is measured with a freezing point depression osmometer (Fisk OS 110 model, Elvetec, Marseille, France) and the urinary concentrations of sodium and potassium are measured with a flame photometer (IL 943, Instruments Laboratories, Marseille, France).
The compounds alone (compound A, compound B) or in combination (compound A+compound B) are suspended in a 0.6% aqueous solution of methylcellulose and administered by gavage in a final volume of 3 ml/kg.
Compound B was used in the form of its dihydrogen phosphate monohydrate salt, the doses indicated are expressed in terms of the base.
The results are expressed in the form of the mean+/−SEM (standard error of the mean). The statistical analysis of the results is performed by means of a two factor variance analysis with repeated measurements of the time factor. The comparison of the means is made with the aid of the Dunnett test for a comparison with respect to a time or group of reference. Only the values of p lower than 5% are considered to be significant (p<0.05).
ASSAY No. 1: Comparative effect on urinary excretion, urinary osmolality and excretion of the Na^+ and K^+ ions in the rat after oral administration of compound A alone, compound B alone and of the combination compound A^+ compound B.
a) Study Performed by Oral Administration of a Fixed Dose of Compound A (30 mg/kg) combined with increasing doses of compound B (0.3, 1 or 3 mg/kg).
b) Study Performed by Oral Administration of a Fixed Dose of Compound B (1 mg/kg) combined with increasing doses of compound A (3,10 or 30 mg/kg).

human V2 receptors = human V2 receptors (Homo sapiens, UniProt P30518); conditions: cited from earlier work
human V2 receptors, sequence (P30518 whole entry): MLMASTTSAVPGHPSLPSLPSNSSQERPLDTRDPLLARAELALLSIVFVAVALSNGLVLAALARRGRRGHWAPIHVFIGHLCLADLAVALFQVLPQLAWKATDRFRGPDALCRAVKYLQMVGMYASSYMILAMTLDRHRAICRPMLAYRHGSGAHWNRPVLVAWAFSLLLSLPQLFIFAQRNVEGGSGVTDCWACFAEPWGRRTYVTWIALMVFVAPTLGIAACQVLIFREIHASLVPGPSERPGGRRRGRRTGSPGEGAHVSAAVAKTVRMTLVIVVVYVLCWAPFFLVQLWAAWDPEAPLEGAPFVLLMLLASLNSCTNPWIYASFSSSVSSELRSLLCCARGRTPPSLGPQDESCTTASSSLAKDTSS

[2] = study a, 30 mg/kg oral, D0 0-24 h after treatment
[3] = study a, 30 mg/kg oral, D-0 0-24 h after treatment
[4] = study a, group of 30 mg/kg oral, D-1 0-24 h, day before treatment (solvent only)
[5] = study a, compound A 30 mg/kg, compound B 0.3, 1 or 3 mg/kg, alone or combined
[6] = study b, 30 mg/kg oral, D0 0-24 h after treatment
[7] = study b, group of 30 mg/kg oral, D-1 0-24 h, day before treatment (solvent only)
[8] = study a, 0.3 mg/kg oral, D0 0-24 h after treatment
[9] = study a, 0.3 mg/kg oral, D-0 0-24 h after treatment
[10] = study a, 1 mg/kg oral, D0 0-24 h after treatment
[11] = study a, 1 mg/kg oral, D-0 0-24 h after treatment
[12] = study a, 3 mg/kg oral, D0 0-24 h after treatment
[13] = study a, 3 mg/kg oral, D-0 0-24 h after treatment
[14] = study a, group of 0.3 mg/kg oral, D-1 0-24 h, day before treatment (solvent only)
[15] = study a, group of 1 mg/kg oral, D-1 0-24 h, day before treatment (solvent only)
[16] = study a, group of 3 mg/kg oral, D-1 0-24 h, day before treatment (solvent only)
[17] = study b, 1 mg/kg oral, D0 0-24 h after treatment
[18] = study b, group of 1 mg/kg oral, D-1 0-24 h, day before treatment (solvent only)
[19] = study b, compound B 1 mg/kg alone or combined with compound A 3, 10 or 30 mg/kg

human V1a receptors, sequence (P37288 whole entry): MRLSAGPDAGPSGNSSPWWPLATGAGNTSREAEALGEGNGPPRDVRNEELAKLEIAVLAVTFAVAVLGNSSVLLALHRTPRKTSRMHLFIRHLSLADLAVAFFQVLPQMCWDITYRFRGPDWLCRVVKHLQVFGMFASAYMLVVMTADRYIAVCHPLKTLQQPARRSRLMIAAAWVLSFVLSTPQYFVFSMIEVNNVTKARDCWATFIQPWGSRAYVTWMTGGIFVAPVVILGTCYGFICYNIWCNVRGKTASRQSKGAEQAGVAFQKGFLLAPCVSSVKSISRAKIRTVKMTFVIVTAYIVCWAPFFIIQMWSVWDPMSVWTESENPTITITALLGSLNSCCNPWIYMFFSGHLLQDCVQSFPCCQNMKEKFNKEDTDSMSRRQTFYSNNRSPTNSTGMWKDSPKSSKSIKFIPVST

Which “V1a arginine vasopressin receptor antagonism (in words)” value (human V1a receptors) does the source give for COc1ccc(S(=O)(=O)N2c3ccc(Cl)cc3[C@](O)(c3ccccc3Cl)[C@@H]2C(=O)N2CCC[C@H]2C(N)=O)cc1OC [Compound A, (2S)-1-{(2R,3S)-5-chloro-3-(2-chlorophenyl)-1-(3,4-dimethoxybenzenesulfonyl)-3-hydroxy-2,3-dihydro-1H-indole-2-carbonyl}pyrrolidine-2-carboxamide] here?
The value was “potent and selective”.

And the “urinary excretion of K+” value [1, 2]?
Its value is 2190 µmol.

And the “urinary excretion of Na+” value [1, 2]?
The value was 1668 µmol.

And the Urinary osmolality [1, 3]?
The Urinary osmolality was 2462 +/− 379^ mOsmol/kg H2O.

What about the Urinary volume [1, 3] of the same compound?
Its Urinary volume is 7.3 ± 1.2 mL.

What about the Urinary osmolality [1, 4] of the same compound?
Its Urinary osmolality is 1409 +/− 13 mOsmol/kg H2O.

And the Urinary volume [1, 4]?
The Urinary volume was 10.7 ± 1.1 mL.

And the “urinary excretion of K+” value [1, 4]?
The value was 2265 µmol.

What about the “urinary excretion of Na+” value [1, 4] of the same compound?
Its value is 1903 µmol.

What about the “effect on urinary excretion (in words)” value [1, 5] of the same compound?
The value was “does not modify”.

And the “effect on urinary excretion of Na+ and K+ ions (in words)” value (“effect … of Na+ and K+ ions (in words)” below) [1, 5]?
Its value is “does not alter”.

And the “effect on urinary osmolality (in words)” value [1, 5]?
Its value is “does not modify”.

And the Urinary osmolality [1, 6]?
The Urinary osmolality was 2462 +/− 379^ mOsmol/kg H2O.

What about the Urinary volume [1, 6] of the same compound?
The Urinary volume was 7.3 +/− 1.2^ ml.

What about the “urinary excretion of K+” value [1, 6] of the same compound?
Its value is 2190 µmol.

What about the “urinary excretion of Na+” value [1, 6] of the same compound?
Its value is 1668 µmol.

And the Urinary osmolality [1, 7]?
The Urinary osmolality was 1409 +/− 13 mOsmol/kg H2O.

What about the Urinary volume [1, 7] of the same compound?
The Urinary volume was 10.7 ± 1.1 mL.

And the “urinary excretion of K+” value [1, 7]?
The value was 2265 µmol.

And the “urinary excretion of Na+” value [1, 7]?
Its value is 1903 µmol.

What about the “affinity for the V2 receptors (in words)” value (human V2 receptors; literature description) of the same compound?
The value was “low affinity”.

Which “urinary excretion of K+” value [1, 8] does the source give for CCOc1ccc2c(c1)C1(CCC(OCCN3CCOCC3)CC1)C(=O)N2S(=O)(=O)c1ccc(C(=O)NC(C)(C)C)cc1OC (stereo not drawn) [Compound B, 1-{4-(N-tert-butylcarbamoyl)-2-methoxybenzenesulfonyl}-5-ethoxy-3-spiro{4-(2-morpholino-ethyloxy)cyclohexane}indol-2-one] here?
Its value is 2254 µmol.

What about the “urinary excretion of Na+” value [1, 8] of the same compound?
The value was 1668 µmol.

And the Urinary osmolality [1, 9]?
The Urinary osmolality was 1075 +/− 165^a mOsmol/kg H2O.

And the Urinary volume [1, 9]?
The Urinary volume was 15 ± 2 mL.

What about the “urinary excretion of K+” value [1, 10] of the same compound?
The value was 2334 µmol.

And the “urinary excretion of Na+” value [1, 10]?
Its value is 1783 µmol.

What about the Urinary osmolality [1, 11] of the same compound?
Its Urinary osmolality is 618 +/− 27^a mOsmol/kg H2O.

What about the Urinary volume [1, 11] of the same compound?
Its Urinary volume is 25 +/− 2.2^a ml.

What about the “urinary excretion of K+” value [1, 12] of the same compound?
The value was 2648 µmol.

What about the “urinary excretion of Na+” value [1, 12] of the same compound?
The value was 2168 µmol.

What about the Urinary osmolality [1, 13] of the same compound?
Its Urinary osmolality is 292 +/− 40^a mOsmol/kg H2O.

What about the Urinary volume [1, 13] of the same compound?
Its Urinary volume is 72.9 +/− 11.1^a ml.

And the Urinary osmolality [1, 14]?
Its Urinary osmolality is 1371 +/− 125 mOsmol/kg H2O.

What about the Urinary volume [1, 14] of the same compound?
Its Urinary volume is 9.1 ± 0.7 mL.

And the “urinary excretion of K+” value [1, 14]?
Its value is 2001 µmol.

And the “urinary excretion of Na+” value [1, 14]?
The value was 1772 µmol.

And the Urinary osmolality [1, 15]?
The Urinary osmolality was 1376 +/− 99 mOsmol/kg H2O.

What about the Urinary volume [1, 15] of the same compound?
The Urinary volume was 9.1 ± 0.7 mL.

What about the “urinary excretion of K+” value [1, 15] of the same compound?
The value was 2034 µmol.

What about the “urinary excretion of Na+” value [1, 15] of the same compound?
Its value is 1840 µmol.

And the Urinary osmolality [1, 16]?
Its Urinary osmolality is 1443 +/− 46 mOsmol/kg H2O.

What about the Urinary volume [1, 16] of the same compound?
Its Urinary volume is 9.5 ± 0.6 mL.

And the “urinary excretion of K+” value [1, 16]?
Its value is 2022 µmol.

What about the “urinary excretion of Na+” value [1, 16] of the same compound?
Its value is 1903 µmol.

What about the “effect on urinary excretion (in words)” value [1, 5] of the same compound?
Its value is “significantly increases”.

And the “effect … of Na+ and K+ ions (in words)” value [1, 5]?
Its value is “no effect”.

What about the “effect on urinary osmolality (in words)” value [1, 5] of the same compound?
The value was “significantly diminishes”.

And the Urinary osmolality [1, 17]?
The Urinary osmolality was 616 +/− 51^a mOsmol/kg H2O.

And the Urinary volume [1, 17]?
The Urinary volume was 31.6 +/− 3.5^a ml.

And the “urinary excretion of K+” value [1, 17]?
Its value is 2944 µmol.

And the “urinary excretion of Na+” value [1, 17]?
The value was 2203 µmol.

And the Urinary osmolality [1, 18]?
Its Urinary osmolality is 1308 +/− 68 mOsmol/kg H2O.

And the Urinary volume [1, 18]?
The Urinary volume was 11.7 ± 1.5 mL.

What about the “urinary excretion of K+” value [1, 18] of the same compound?
Its value is 2519 µmol.

And the “urinary excretion of Na+” value [1, 18]?
The value was 2039 µmol.

And the “effect on urinary excretion (in words)” value [1, 19]?
The value was “significantly increases”.

What about the “effect … of Na+ and K+ ions (in words)” value [1, 19] of the same compound?
Its value is “no effect”.

What about the “effect on urinary osmolality (in words)” value [1, 19] of the same compound?
The value was “significantly diminishes”.

What about the “V2 arginine vasopressin receptor antagonism (in words)” value (human V2 receptors; various species, in particular human V2 receptors, J. Clin. Invest., 1996, 98, 2729-2738) of the same compound?
The value was “potent and selective”.
